Measurements taken from patent US6656947B2, “Antidepressant azaheterocyclylmethyl derivatives of 2,3-dihydro-1,4-dioxino[2,3-f]quinazoline” (Wyeth, priority 2001, dated 2003).

Tests used:
serotonin transporter = target: T1, serotonin transporter (Rattus norvegicus, UniProt P31652); test: 3H-paroxetine displacement, serotonin transporter affinity; format: binding
T1 construct: displace ^3H-paroxetine from male rat frontal cortical membranes; from tissue; host or cells: male rat frontal cortex membranes
T1 sequence (P31652 whole entry): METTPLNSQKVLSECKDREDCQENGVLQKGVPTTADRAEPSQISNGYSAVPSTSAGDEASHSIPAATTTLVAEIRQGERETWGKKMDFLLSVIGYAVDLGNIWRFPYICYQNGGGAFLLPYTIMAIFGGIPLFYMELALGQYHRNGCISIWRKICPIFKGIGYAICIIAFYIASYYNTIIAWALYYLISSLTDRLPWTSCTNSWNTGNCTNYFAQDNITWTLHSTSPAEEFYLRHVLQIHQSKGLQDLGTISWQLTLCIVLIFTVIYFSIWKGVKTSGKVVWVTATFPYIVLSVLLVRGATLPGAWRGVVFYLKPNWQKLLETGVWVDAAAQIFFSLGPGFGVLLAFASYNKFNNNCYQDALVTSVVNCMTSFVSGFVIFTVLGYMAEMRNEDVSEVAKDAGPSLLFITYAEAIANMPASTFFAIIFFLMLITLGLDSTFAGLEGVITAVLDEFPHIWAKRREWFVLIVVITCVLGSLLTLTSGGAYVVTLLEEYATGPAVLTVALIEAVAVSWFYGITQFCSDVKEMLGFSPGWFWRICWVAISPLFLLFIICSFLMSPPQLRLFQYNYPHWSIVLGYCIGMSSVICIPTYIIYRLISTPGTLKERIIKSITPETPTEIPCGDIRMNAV

[1] = target: T2, cloned human 5-HT1A receptors (Homo sapiens, UniProt P08908); test: 35S-GTPγS binding assay, 5-HT1A antagonist activity; format: biochemical; details: reversal of the effects of standard agonist 8-OHDPAT on 35S-GTPγS binding; for IC50: membranes with cloned human 5-HT1A receptors, read-out: 5-HT1A Function IC50; for 5-HT1A Function Imax (maximum inhibitory effect): value in parentheses
T2 construct: expressed in transfected cells
T2 sequence (P08908 1-422): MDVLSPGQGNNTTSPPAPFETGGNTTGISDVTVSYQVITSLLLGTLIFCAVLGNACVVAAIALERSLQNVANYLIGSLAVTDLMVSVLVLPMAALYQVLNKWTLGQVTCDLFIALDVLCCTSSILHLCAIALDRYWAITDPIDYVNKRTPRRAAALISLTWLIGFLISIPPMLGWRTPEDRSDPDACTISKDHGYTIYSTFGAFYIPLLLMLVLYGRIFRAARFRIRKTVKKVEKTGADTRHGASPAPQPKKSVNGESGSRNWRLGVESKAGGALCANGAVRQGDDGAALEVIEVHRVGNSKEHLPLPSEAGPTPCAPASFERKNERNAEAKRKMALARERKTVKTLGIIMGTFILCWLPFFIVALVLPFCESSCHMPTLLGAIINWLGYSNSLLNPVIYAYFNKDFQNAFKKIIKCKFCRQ
Protocol: Antagonist activity at 5-HT1A receptors was established by using a ^35S-GTPγS binding assay similar to that used by Lazareno and Birdsall (Br. J. Pharmacol. 109: 1120, 1993), in which the test compound's ability to affect the binding of ^35S-GTPγS to membranes containing cloned human 5-HT1A receptors was determined. Agonists produce an increase in binding whereas antagonists produce no increase but rather reverse the effects of the standard agonist 8-OHDPAT. The test compound's maximum inhibitory effect is represented as the Imax, while its potency is defined by the IC50.

human 5-HT1A receptors = target: T3, human 5-HT1A receptors (Homo sapiens, UniProt P08908); test: [3H] 8-OHDPAT displacement, 5-HT1A receptor affinity; format: binding
T3 construct: expressed in transfected cells; host or cells: CHO cells
T3 sequence (P08908 1-422): T2 sequence (P08908 1-422)
From the text: High affinity for the serotonin 5-HT1A receptor was established by testing the claimed compound's ability to displace [^3H] 8-OHDPAT (dipropylamino-tetralin) from the 5-HT1A serotonin receptor following a modification of the procedure of Hall et al., J. Neurochem. 44, 1685 (1985) which utilizes CHO cells stably transfected with human 5-HT1A receptors.

Structure (SMILES)	Ki (serotonin transporter)	IC50 [1]	5-HT1A Function Imax (maximum inhibitory effect) [1]	Ki (human 5-HT1A receptors)	melting point
Cc1ncc2c3c(ccc2n1)OCC(CN1CC=C(c2c[nH]c4ccccc24)CC1)O3 (stereo not drawn) [Example 4, 2-[(4-(1H-Indol-3-yl)-3,6-dihydropyridin-1(2H)-yl)methyl]-8-methyl-2,3-dihydro[1,4]dioxino[2,3-f]quinazoline]	2.26 nM	116 nM	(100)	2.4 nM	–
CCc1ncc2c3c(ccc2n1)OCC(CN1CC=C(c2c[nH]c4ccccc24)CC1)O3 (stereo not drawn) [Example 5, 2-[(4-(1H-Indol-3-yl)-3,6-dihydropyridin-1(2H)-yl)methyl]-8-ethyl-2,3-dihydro[1,4]dioxino[2,3-f]quinazoline]	4.25 nM	209 nM	(100)	8.27 nM	203 to 211 °C
Cc1nc2ccc3c(c2c[n+]1[O-])OC(CN1CC=C(c2c[nH]c4ccccc24)CC1)CO3 (stereo not drawn) [Example 3, 2-[(4-(1H-Indol-3-yl)-3,6-dihydropyridin-1(2H)-yl)methyl]-8-methyl-2,3-dihydro[1,4]dioxino[2,3-f]quinazoline 9-oxide]	4.64 nM	440 nM	(94.0)	25.6 nM	–
C1=C(c2c[nH]c3ccccc23)CCN(CC2COc3ccc4ncncc4c3O2)C1 (stereo not drawn) (hydrate or solvate) [Example 2, 2-[(4-(1H-Indol-3-yl)-3,6-dihydropyridin-1(2H)-yl)methyl]-2,3-dihydro[1,4]dioxino[2,3-f]quinazoline]	–	–	–	–	204 to 207 °C
C1=C(c2c[nH]c3ccccc23)CCN(CC2COc3ccc4ncncc4c3O2)C1 (stereo not drawn) [Example 2, 2-[(4-(1H-Indol-3-yl)-3,6-dihydropyridin-1(2H)-yl)methyl]-2,3-dihydro[1,4]dioxino[2,3-f]quinazoline]	2.87 nM	379 nM	(100)	15 nM	–
Cc1ncc2c3c(ccc2n1)OCC(CN1CC=C(c2c[nH]c4ccccc24)CC1)O3 (stereo not drawn) (hydrate or solvate) [Example 4, 2-[(4-(1H-Indol-3-yl)-3,6-dihydropyridin-1(2H)-yl)methyl]-8-methyl-2,3-dihydro[1,4]dioxino[2,3-f]quinazoline]	–	–	–	–	198 to 202 °C
Fc1ccc2[nH]cc(C3=CCN(CC4COc5ccc6ncncc6c5O4)CC3)c2c1 (stereo not drawn) [Example 1, 2-[(4-(5-Fluoro-1H-indol-3-yl)-3,6-dihydropyridin-1(2H)-yl)methyl]-2,3-dihydro[1,4]dioxino[2,3-f]quinazoline]	2.24 nM	499 nM	(94.0)	51.5 nM	–
Fc1ccc2[nH]cc(C3=CCN(CC4COc5ccc6ncncc6c5O4)CC3)c2c1 (stereo not drawn) (hydrate or solvate) [Example 1, 2-[(4-(5-Fluoro-1H-indol-3-yl)-3,6-dihydropyridin-1(2H)-yl)methyl]-2,3-dihydro[1,4]dioxino[2,3-f]quinazoline]	–	–	–	–	233 to 235 °C
